From patent US20190183896A1, “ONE STEP MILLING PROCESS FOR PREPARING MICRONIZED PALIPERIDONE ESTERS” (SpecGX LLC, priority 2017, published 2019)

Assay: Particle size measurement of milled suspension (MALVERN MASTERSIZER 3000, in deionized water)
Assay type: physicochemical
Conditions: mean; suspension of Example 1 milled 20 minutes with 700 micron polystyrene grinding media (Example 2); measured in deionized water
Description: The suspension from Example 1 (6-35 w/v %) was milled in a NETZSCH MINICER bead mill using 700 micron polystyrene grinding media (40-85% media load). The mixture was milled at a speed of 3.1-5.5 m/s at 15-25° C. for 20 minutes.
Following milling, particle size was measured, in deionized water, using a MALVERN MASTERSIZER 3000 particle size analyzer. The mean milled paliperidone palmitate particle size distribution of the suspension was D90 less than 20 micron, D50 less than 10 micron, and a D10 less than 3 micron (FIG. 1).

SMILES: CCCCCCCCCCCCCCCC(=O)OC1CCCn2c1nc(C)c(CCN1CCC(c3noc4cc(F)ccc34)CC1)c2=O (stereo not drawn) [paliperidone palmitate, 3-(2-(4-(6-fluoro-3a,7a-dihydrobenzo[d]isoxazol-3-yl)piperidin-1-yl)ethyl)-2-methyl-4-oxo-6,7,8,9-tetrahydro-4H-pyrido[1,2-a]pyrimidin-9-yl palmitate]
- particle size distribution D10: less than 3 micron
- particle size distribution D50: less than 10 micron
- particle size distribution D90: less than 20 micron
